Test results taken from ChEMBL document CHEMBL4308841, “Synthesis, in vitro antiproliferative activity, and kinase inhibitory effects of pyrazole-containing diarylureas and diarylamides” (Eur J Med Chem, 2018).
pIC50: −log10 of the molar value.

Assays:
OVCAR-5 [1] = experiment: Growth inhibition of human OVCAR5 cells assessed as cell growth at 100 uM incubated for 48 hrs by sulforhodamine B assay relative to control; assay type: functional; details: OVCAR-5, 48 h, read-out: Activity
NCI-H322M = experiment: Growth inhibition of human NCI-H322M cells incubated for 48 hrs by sulforhodamine B assay; assay type: functional, cell-based
Hs-578T = experiment: Growth inhibition of human Hs578T cells assessed as cell growth at 1 uM incubated for 48 hrs by sulforhodamine B assay relative to control; assay type: functional; details: read-out: Activity
NCI-H23 = experiment: Growth inhibition of human NCI-H23 cells assessed as cell growth at 1 uM incubated for 48 hrs by sulforhodamine B assay relative to control; assay type: functional; details: NCI-H23, 48 h, read-out: Activity
SF-268 [2] = experiment: Growth inhibition of human SF268 cells assessed as cell growth at 0.1 uM incubated for 48 hrs by sulforhodamine B assay relative to control; assay type: functional; details: SF-268, 48 h, read-out: Activity
PC-3 = experiment: Growth inhibition of human PC3 cells incubated for 48 hrs by sulforhodamine B assay; assay type: functional, cell-based; details: PC-3, 48 h
SNB-19 [3] = experiment: Growth inhibition of human SNB19 cells assessed as cell growth at 0.1 uM incubated for 48 hrs by sulforhodamine B assay relative to control; assay type: functional; details: SNB-19, 48 h, read-out: Activity
RXF 393 [4] = experiment: Growth inhibition of human RXF393 cells incubated for 48 hrs by sulforhodamine B assay; assay type: functional, cell-based; details: RXF 393, 48 h
SF-268 [5] = experiment: Growth inhibition of human SF268 cells incubated for 48 hrs by sulforhodamine B assay; assay type: functional, cell-based; details: SF-268, 48 h
U-251 = experiment: Growth inhibition of human U251 cells assessed as cell growth at 0.1 uM incubated for 48 hrs by sulforhodamine B assay relative to control; assay type: functional; details: U-251, 48 h, read-out: Activity
Malme-3M = experiment: Growth inhibition of human MALME-3M cells assessed as cell growth at 1 uM incubated for 48 hrs by sulforhodamine B assay relative to control; assay type: functional; details: read-out: Activity
SF-539 = experiment: Growth inhibition of human SF539 cells assessed as cell growth at 1 uM incubated for 48 hrs by sulforhodamine B assay relative to control; assay type: functional; details: SF-539, 48 h, read-out: Activity
SNB-19 [6] = experiment: Growth inhibition of human SNB19 cells assessed as cell growth at 0.01 uM incubated for 48 hrs by sulforhodamine B assay relative to control; assay type: functional; details: SNB-19, 48 h, read-out: Activity
UACC-62 = experiment: Growth inhibition of human UACC62 cells assessed as cell growth at 1 uM incubated for 48 hrs by sulforhodamine B assay relative to control; assay type: functional; details: UACC-62, 48 h, read-out: Activity
IGROV-1 [7] = experiment: Growth inhibition of human IGROV1 cells incubated for 48 hrs by sulforhodamine B assay; assay type: functional, cell-based; details: IGROV-1, 48 h
OVCAR-3 [8] = experiment: Growth inhibition of human OVCAR3 cells incubated for 48 hrs by sulforhodamine B assay; assay type: functional, cell-based; details: OVCAR-3, 48 h
IGROV-1 [9] = experiment: Growth inhibition of human IGROV1 cells assessed as cell growth at 100 uM incubated for 48 hrs by sulforhodamine B assay relative to control; assay type: functional; details: IGROV-1, 48 h, read-out: Activity
UO-31 = experiment: Growth inhibition of human UO31 cells assessed as cell growth at 1 uM incubated for 48 hrs by sulforhodamine B assay relative to control; assay type: functional; details: UO-31, 48 h, read-out: Activity
SN12C [10] = experiment: Growth inhibition of human SN12C cells assessed as cell growth at 1 uM incubated for 48 hrs by sulforhodamine B assay relative to control; assay type: functional; details: read-out: Activity
NCI-H226 = experiment: Growth inhibition of human NCI-H226 cells assessed as cell growth at 100 uM incubated for 48 hrs by sulforhodamine B assay relative to control; assay type: functional; details: NCI-H226, 48 h, read-out: Activity
NCI/ADR-RES = experiment: Growth inhibition of human NCI/ADR-RES cells assessed as cell growth at 100 uM incubated for 48 hrs by sulforhodamine B assay relative to control; assay type: functional; details: read-out: Activity
RXF 393 [11] = experiment: Growth inhibition of human RXF393 cells assessed as cell growth at 0.1 uM incubated for 48 hrs by sulforhodamine B assay relative to control; assay type: functional; details: RXF 393, 48 h, read-out: Activity
KM12 = experiment: Growth inhibition of human KM12 cells assessed as cell growth at 0.01 uM incubated for 48 hrs by sulforhodamine B assay relative to control; assay type: functional; details: KM12, 48 h, read-out: Activity
SR = experiment: Growth inhibition of human SR cells assessed as cell growth at 0.01 uM incubated for 48 hrs by sulforhodamine B assay relative to control; assay type: functional; details: read-out: Activity
OVCAR-5 [12] = experiment: Growth inhibition of human OVCAR5 cells assessed as cell growth at 0.1 uM incubated for 48 hrs by sulforhodamine B assay relative to control; assay type: functional; details: OVCAR-5, 48 h, read-out: Activity
SNB-75 = experiment: Growth inhibition of human SNB75 cells assessed as cell growth at 1 uM incubated for 48 hrs by sulforhodamine B assay relative to control; assay type: functional; details: SNB-75, 48 h, read-out: Activity
MCF7 = experiment: Growth inhibition of human MCF7 cells assessed as cell growth at 1 uM incubated for 48 hrs by sulforhodamine B assay relative to control; assay type: functional; details: MCF7, 48 h, read-out: Activity
SN12C [13] = experiment: Growth inhibition of human SN12C cells assessed as cell growth at 0.01 uM incubated for 48 hrs by sulforhodamine B assay relative to control; assay type: functional; details: read-out: Activity
OVCAR-3 [14] = experiment: Growth inhibition of human OVCAR3 cells assessed as cell growth at 100 uM incubated for 48 hrs by sulforhodamine B assay relative to control; assay type: functional; details: OVCAR-3, 48 h, read-out: Activity
HCC 2998 = experiment: Growth inhibition of human HCC2998 cells assessed as cell growth at 100 uM incubated for 48 hrs by sulforhodamine B assay relative to control; assay type: functional; details: HCC 2998, 48 h, read-out: Activity
SF-268 [15] = experiment: Growth inhibition of human SF268 cells assessed as cell growth at 1 uM incubated for 48 hrs by sulforhodamine B assay relative to control; assay type: functional; details: SF-268, 48 h, read-out: Activity
[16] = read-out: LC50 (the source's name)
[17] = read-out: pLC50 (the source's name) (converted)

COc1cc(Cl)cc(-c2nn(-c3cccc(NC(=O)Nc4cccc(C(F)(F)F)c4)c3)cc2-c2ccncc2)c1
growth at 100 µM (OVCAR-5 [1]): -13%
GI50 (NCI-H322M; read-out: GI50): 2.53 µM
CC50 (NCI-H322M; [16]): > 100 µM
TGI (NCI-H322M; read-out: TGI): 22.9 µM
GI50 (NCI-H322M; read-out: pGI50 (converted)): 2.63 µM
CC50 (NCI-H322M; [17]): > 100 µM
TGI (NCI-H322M; read-out: pTGI (converted)): 22.4 µM
growth at 1 µM (Hs-578T): 90%
growth at 1 µM (NCI-H23): 71%
growth at 0.1 µM (SF-268 [2]): 94%
pIC50 (PC-3): 6.38
GI50 (PC-3; read-out: GI50): 0.417 µM
CC50 (PC-3; [16]): > 100 µM
TGI (PC-3; read-out: TGI): 32 µM
GI50 (PC-3; read-out: pGI50 (converted)): 0.417 µM
CC50 (PC-3; [17]): > 100 µM
TGI (PC-3; read-out: pTGI (converted)): 3.24 µM
growth at 0.1 µM (SNB-19 [3]): 96%
LC50 (RXF 393 [4]): 36.3 µM
GI50 (RXF 393 [4]; read-out: GI50): 1.4 µM
TGI (RXF 393 [4]; read-out: TGI): 43.5 µM
GI50 (RXF 393 [4]; read-out: pGI50 (converted)): 1.41 µM
TGI (RXF 393 [4]; read-out: pTGI (converted)): 4.37 µM
GI50 (SF-268 [5]; read-out: GI50): 2.56 µM
CC50 (SF-268 [5]; [16]): > 100 µM
TGI (SF-268 [5]; read-out: TGI): 17.1 µM
GI50 (SF-268 [5]; read-out: pGI50 (converted)): 2.57 µM
CC50 (SF-268 [5]; [17]): > 100 µM
TGI (SF-268 [5]; read-out: pTGI (converted)): 17 µM
growth at 0.1 µM (U-251): 93%
growth at 1 µM (Malme-3M): 75%
growth at 1 µM (SF-539): 84%
growth at 0.01 µM (SNB-19 [6]): 98%
growth at 1 µM (UACC-62): 70%
GI50 (IGROV-1 [7]; read-out: GI50): 2.56 µM
CC50 (IGROV-1 [7]; [16]): > 100 µM
TGI (IGROV-1 [7]; read-out: TGI): 22.7 µM
GI50 (IGROV-1 [7]; read-out: pGI50 (converted)): 2.88 µM
CC50 (IGROV-1 [7]; [17]): > 100 µM
TGI (IGROV-1 [7]; read-out: pTGI (converted)): 22.9 µM
pIC50 (OVCAR-3 [8]): 6.23
GI50 (OVCAR-3 [8]; read-out: GI50): 0.502 µM
CC50 (OVCAR-3 [8]; [16]): > 100 µM
TGI (OVCAR-3 [8]; read-out: TGI): 45.7 µM
GI50 (OVCAR-3 [8]; read-out: pGI50 (converted)): 0.589 µM
CC50 (OVCAR-3 [8]; [17]): > 100 µM
TGI (OVCAR-3 [8]; read-out: pTGI (converted)): 4.57 µM
growth at 100 µM (IGROV-1 [9]): -12%
growth at 1 µM (UO-31): 51%
growth at 1 µM (SN12C [10]): 59%
growth at 100 µM (NCI-H226): -22%
growth at 100 µM (NCI/ADR-RES): -22%
growth at 0.1 µM (RXF 393 [11]): 92%
growth at 0.01 µM (KM12): 97%
growth at 0.01 µM (SR): 89%
growth at 0.1 µM (OVCAR-5 [12]): 54%
growth at 1 µM (SNB-75): 68%
growth at 1 µM (MCF7): 62%
growth at 0.01 µM (SN12C [13]): 101%
growth at 100 µM (OVCAR-3 [14]): -41%
growth at 100 µM (HCC 2998): -83%
growth at 1 µM (SF-268 [15]): 79%
